Laboratory results reported in patent US7601736B2, “Pyridine derivatives, a process for their preparation and a pharmaceutical composition containing the same” (SK Chemicals Co., Ltd., priority 2003, dated 2009).

Legend:
[1] = system: TNF-α; assay: Cytokine inhibitory activity in cells: LPS-induced TNF-α in RAW 264.7; type: cell-based, murine; details: Mus musculus, RAW264.7, RAW 264.7, LPS 1 μg/mL, read-out: TNF-α Inhibition Rate (%); for inhibition at 1 µM: test conc. 1 μM; for inhibition at 10 µM: test conc. 10 μM; for inhibition at 100 µM: test conc. 100 μM; for inhibition at 1000 µM: test conc. 1 mM
Experimental: General reagents used were purchased from Sigma-Aldrich chem. Co. and cytokine inhibitory activities were tested as follows. Mediums and reagents used in cell culture were purchased from GIBCO BRL (USA), and mouse TNF-α ELISA kit was purchased from R&D system (USA). The apparatus used ELISA reader (Spectra max-Plus 384, Molecular Device, USA).
Murine macrophage cell line RAW 264.7 was kindly provided by Korean Tissue Culture Center (KTCC). The cell line was cultured in DMEM medium containing 10% FBS, in a cell culturing device at the condition of 37° C., 5% CO2. First, murine RAW 264.7 was cultured in DMEM medium containing 10% FBS for about 24 hours, and cells were planted 200 μL each in 96 well plates at the concentration of 5×10^5/mL and cultured for about 24 hours. Then, test compounds were treated at various concentrations and then reacted at 37° C. for about 1 hour, wherein 1 μg/mL of lipopolysaccharide (LPS) was added thereto and reacted at 37° C. for about 12 hours. The supernatant was recovered and the amount of murine TNF-α on the medium was quantitated using ELISA kit. Thalidomide was respectively used as a positive and a negative control to compare the activities and the results are shown in the following tables 4a -4c.

[2] = system: TNF-α; assay: Cytokine inhibitory activity in animal model (LPS-treated SD rats), plasma TNF-α; type: in vivo, Sprague Dawley (SD) rats; details: Rattus norvegicus, 2 h; SD rats, oral, LPS; 40 mg/kg; read-out: TNF-α Inhibition Rate (Conc.)
Experimental: (§1) Sprague Dawley (SD) rats with body weights of about 180 to about 200 g were fasted (free drinking) and then tested. Test compounds were administered orally at 40 mg/kg and then abdominally administered with LPS 1 μg/mL after 1 hour. After 2 hours, the rats were sacrificed and bloods were collected from abdominal vein, stored at room temperature for about 2 hours, and then centrifuged at 12,000 rpm for about 2 minutes. Thus produced plasma was respectively collected and its TNF-α in each plasma was quantitated using mouse TNF-α ELISA kit based on the amount of recombinant TNF-α in rats. The plate used was coated with anti-rat TNF-α monoclone IgG antibodies. Likewise, for the test of IL-1α, IL-1α in each plasma was quantitated using the above plasma and mouse IL-1α ELISA kit based on the amount of recombinant IL-1α in rats. The plate used was coated with anti-rat IL-1α monoclone IgG antibodies. Further, for the test of IL-6, IL-6 in each plasma was quantitated using the above plasma and mouse IL-6 ELISA kit based on the amount of recombinant IL-6 in rats. Further, for the test of INF-γ, INF-γ in each plasma was quantitated using the above plasma and mouse INF-γ ELISA kit based on the amount of recombinant INF-γ in rats. The plate used was coated with anti-rat INF-γ monoclone IgG antibodies. From the above tests, inhibitory rates on the expression of each cytokine were obtained and they were compared to that of Indomethacin.

[3] = system: IL-6; assay: Cytokine inhibitory activity in animal model (LPS-treated SD rats), plasma IL-6; type: in vivo, Sprague Dawley (SD) rats; details: oral
Experimental: as §1, with “Test compounds were administered orally at 40 mg/kg and then abdominally administered with LPS 1 μg/mL after 1 hour.” left out

[4] = system: IL-1α; assay: Cytokine inhibitory activity in human whole blood (LPS), IL-1α ELISA; type: cell-based; details: LPS 1 μg/mL, read-out: IL-1α Inhibition rate (conc.); for inhibition at 0.1 µg/mL: test conc. 100 ng/mL
Experimental: (§2) 20 mL of venous whole blood collected respectively from 5 healthy volunteers of men or women, who had never been medicated with anti-inflammatory drugs within the last two weeks, and was added with heparin. 1 mL each of the above blood was respectively collected, and transferred into test tubes in which it was mixed with test material. The above mixture was precultured at 37° C. for about 1 hour. Then it was added with 1 μg/mL of LPS (lipopolysaccharide), allowed to react at the same temperature for about 4 to about 12 hours and then centrifuged at 4° C. at the rate of 3000 rpm for about 10 minutes. Thus produced plasma was respectively collected and its TNF-α in each plasma was quantitated using human TNF-α ELISA kit based on the amount of recombinant TNF-α in humans. The plate used was coated with anti-human TNF-α monoclone IgG antibodies. Likewise, for the test of IL-1α, IL-1α in each plasma was quantitated using the above plasma and human IL-1α ELISA kit based on the amount of recombinant IL-1α in humans. The plate used was coated with anti-human IL-1α monoclone IgG antibodies. Further, for the test of PGE2, PGE2 in each plasma was quantitated using the above plasma and PGE2 ELISA kit based on the amount of recombinant PGE2 in humans. The plate used was coated with anti-human PGE2 monoclone IgG antibodies. From the above tests, inhibitory rates on the expression of each cytokine were obtained and they were compared to that of Indomethacin.

[5] = system: INF-γ; assay: Cytokine inhibitory activity in animal model (LPS-treated SD rats), plasma INF-γ; type: in vivo, Sprague Dawley (SD) rats; details: oral
Experimental: as §1, with “Test compounds were administered orally at 40 mg/kg and then abdominally administered with LPS 1 μg/mL after 1 hour.” left out

[6] = system: ICR (Institute of Cancer Research) mouse; assay: Analgesic test (acetic acid-induced stretchings); type: in vivo; details: oral
Experimental: Male ICR (Institute of Cancer Research) mouse with body weight of about 20 to 30 g were tested wherein each group had 6 mouses. After 1 hour of the oral administration of a test compound, acetic acid (in distilled water) was abdominally administered. For the duration of 10 minutes, the animals were observed regarding the number of stretchings and the number was compared with that of placebo treated group and the result is shown in the following table 7.

[7] = system: TNF-α; assay: Cytokine inhibitory activity in human whole blood (LPS), TNF-α ELISA; type: cell-based; details: LPS 1 μg/mL, read-out: TNF-α Inhibition rate (conc.); for inhibition at 0.1 µg/mL: test conc. 100 ng/mL
Experimental: as §2

[8] = system: IL-1α; assay: Cytokine inhibitory activity in animal model (LPS-treated SD rats), plasma IL-1α; type: in vivo, Sprague Dawley (SD) rats; details: oral
Experimental: as §1, with “Test compounds were administered orally at 40 mg/kg and then abdominally administered with LPS 1 μg/mL after 1 hour.” left out

[9] = system: ICR (Institute of Cancer Research) mouse; assay: Arachidonic acid-induced ear edema test; type: in vivo; details: oral
Experimental: Male ICR (Institute of Cancer Research) mouse with body weight of about 20 to 30 g were tested wherein each group had 6 mouses. After 1 hour of the oral administration of a test compound, Arachidonic acid (in acetone solution) was coated on one of the ears. After 1 hour, the thickness of the swollen ear in treated group was compared with the other unswollen ear and obtained the average increase rate in thickness of ear by the treatment.

[10] = system: PGE2; assay: Cytokine inhibitory activity in human whole blood (LPS), PGE2 ELISA; type: cell-based; details: LPS 1 μg/mL, read-out: PGE2 Inhibition rate (conc.); for inhibition at 300 µg/mL: test conc. 300 μg/mL
Experimental: as §2

[11] = system: ICR (Institute of Cancer Research) mouse; assay: Croton oil-induced ear edema test; type: in vivo; details: oral
Experimental: Male ICR (Institute of Cancer Research) mouse with body weight of about 20 to 30 g were tested wherein each group had 6 mouses. After 1 hour of the oral administration of a test compound, Croton oil (in acetone solution) was coated on one of the ears. After 4 hours, the thickness of the swollen ear in treated group was compared with the other unswollen ear and obtained the average increase rate in thickness of ear by the treatment.

[12] = system: TNF-α; assay: Cytokine inhibitory activity in animal model (LPS-treated SD rats), plasma TNF-α; type: in vivo, Sprague Dawley (SD) rats; details: Rattus norvegicus, 2 h, oral, read-out: TNF-α Inhibition Rate (Conc.)

SMILES | inhibition at 1 µM [1] [%] | inhibition at 10 µM [1] [%] | inhibition at 100 µM [1] [%] | inhibition at 1000 µM [1] [%] | inhibition in vivo at 40 mg/kg [2] [%] | IL-6 Inhibition rate (conc.) ([3]; 40 mg/kg) | inhibition at 0.1 µg/mL [4] [%] | INF-γ Inhibition rate (conc.) ([5]; 40 mg/kg) | Inhibition Rate (%) ([6]; 10 mg/kg) | Inhibition Rate (%) ([6]; 50 mg/kg) | inhibition at 0.1 µg/mL [7] [%] | IL-α Inhibition rate (conc.) ([8]; 40 mg/kg) | Inhibition Rate (%) ([9]; 2 mg/kg) | Inhibition Rate (%) ([9]; 10 mg/kg) | Inhibition Rate (%) ([9]; 50 mg/kg) | inhibition at 300 µg/mL [10] [%] | Inhibition Rate (%) ([11]; 2 mg/kg) | Inhibition Rate (%) ([11]; 10 mg/kg) | Inhibition Rate (%) ([11]; 50 mg/kg) | further results
C=Cc1cncc2c1CCOC2=O [Ex. 9, 5-vinyl-3,4-dihydro-pyrano[3,4-c]pyridine-1-on] | 37 | 38 | 39 | 41 | 59 | 43% (40 mg/kg) | 93 | 45% (40 mg/kg) | 73 | 76 | 82 | 62% (40 mg/kg) | 21 | 29 | 39 | 38 | 25 | 44 | 37 | 
O=C1OCCc2ccncc21 [Ex. 3, 3,4-dihydro-pyrano[3,4-c]pyridine-1-on] | 34 | 35 | 43 | 44 | 75 | 71% (40 mg/kg) | 95 | 48% (40 mg/kg) | 76 | 92 | 90 | 65% (40 mg/kg) | 33 | 51 | 46 | 24 | 33 | 56 | 57 | 
Cc1cc2c(cn1)C(=O)OCC2 [Ex. 6, 6-methyl-3,4-dihydro-pyrano[3,4-c]pyridine-1-on] | 30 | 35 | 36 | 38 | 39 | 78% (40 mg/kg) | 90 | 51% (40 mg/kg) | 76 | 75 | 84 | 52% (40 mg/kg) | 21 | 36 | 41 | 23 | 17 | 39 | 69 | 
COc1ccc2c(c1)c(CC(=O)O)c(C)n2C(=O)c1ccc(Cl)cc1 [Indomethacin, reference compound] |  |  |  |  |  |  |  |  |  |  |  |  |  |  |  |  |  |  |  | IL-6 Inhibition rate (conc.) ([3]; 200 mg/kg): 60% (200 mg/kg); inhibition at 200 µg/mL ([4]; test conc. 200 μg/mL): 25%; INF-γ Inhibition rate (conc.) ([5]; 200 mg/kg): 13% (200 mg/kg); inhibition in vivo at 200 mg/kg [12]: 46%; inhibition at 200 µg/mL ([7]; test conc. 200 μg/mL): 37%; IL-α Inhibition rate (conc.) ([8]; 200 mg/kg): 24% (200 mg/kg); inhibition at 200 µg/mL ([10]; test conc. 200 μg/mL): 37%
